# Measurements published in ChEMBL document CHEMBL4020736, “Synthesis and biological evaluation of novel selective androgen receptor modulators (SARMs) Part III: Discovery of 4-(5-oxopyrrolidine-1-yl)benzonitrile derivative 2f as a clinical candidate” (Bioorg Med Chem, 2017).
# Test system: not listed separately
# Assay: Clearance in human liver microsomes at 1 uM after 60 mins in presence of NADPH by UPLC analysis
# Format: ADME, microsome
# Details: read-out: CLH
row,Structure (SMILES),microsomal CLint at 1 µM [µL/min/mg]
1,Cc1c(N2C(=O)C[C@H](O)[C@@H]2C)ccc(C#N)c1Cl,5
2,CC[C@H]1[C@@H](O)CC(=O)N1c1ccc(C#N)c(Cl)c1,2

# Test system: not listed separately
# Assay: Clearance in rat liver microsomes at 1 uM after 15 mins in presence of NADPH by UPLC analysis
# Format: ADME, microsome
# Details: read-out: CLH
row,Structure (SMILES),microsomal CLint at 1 µM [µL/min/mg]
1,CC[C@H]1[C@H](O)CC(=O)N1c1ccc(C#N)c(Cl)c1,1
2,CC(C)C[C@H]1[C@@H](O)CC(=O)N1c1ccc(C#N)c(Cl)c1,41
3,Cc1c(N2C(=O)C[C@H](O)[C@@H]2C)ccc(C#N)c1Cl,16
4,CC[C@H]1[C@@H](O)CC(=O)N1c1ccc(C#N)c(Cl)c1,24

# Test system: Rattus norvegicus
# Assay: Anabolic effect in castrated CD(SD)IGS rat assessed as levator ani muscle weight at 2.5 mg/kg, po bid for 4 days co-treated with testosterone propionate by Harshberger assay relative to control
# Format: functional
# Details: not given
row,Structure (SMILES),Activity [%]
1,C[C@H]1[C@@H](O)C(F)(F)C(=O)N1c1ccc(C#N)c(Cl)c1,139
2,CC[C@H]1[C@H](O)CC(=O)N1c1ccc(C#N)c(Cl)c1,124
3,CC[C@H]1[C@@H](O)CC(=O)N1c1ccc(C#N)c(Cl)c1,134

# Test system: Rattus norvegicus
# Assay: Androgenic activity in castrated CD(SD)IGS rat assessed as prostate weight at 2.5 mg/kg, po bid for 4 days co-treated with testosterone propionate by Harshberger assay relative to control
# Format: organism-based
# Details: in vivo, 96 h
row,Structure (SMILES),Activity [%]
1,C[C@H]1[C@@H](O)C(F)(F)C(=O)N1c1ccc(C#N)c(Cl)c1,85
2,CC[C@H]1[C@H](O)CC(=O)N1c1ccc(C#N)c(Cl)c1,84
3,CC[C@H]1[C@@H](O)CC(=O)N1c1ccc(C#N)c(Cl)c1,94

# Test system: Rattus norvegicus
# Assay: Induction of sexual behavior in castrated CD(SD)IGS rat assessed as pseudopregnancy rate at 3 mg/kg, sc qd for 21 days measured on day 18 to 21 relative to control
# Format: functional
# Details: not given
row,Structure (SMILES),Activity [%]
1,CCC(=O)O[C@H]1CC[C@H]2[C@@H]3CCC4=CC(=O)CC[C@]4(C)[C@H]3CC[C@]12C [TESTOSTERONE PROPIONATE],100

# Test system: not listed separately
# Assay: Cmax in Crl:CD(SD) rat at 1 mg/kg, po by LC-MS/MS analysis
# Format: ADME, organism-based
# Set-up: dose 1 mg/kg, route oral
# Details: in vivo
row,Structure (SMILES),Cmax [µg/mL]
1,Cc1c(N2C(=O)C[C@H](O)[C@@H]2C)ccc(C#N)c1Cl,1.07

# Test system: not listed separately
# Assay: Tmax in Crl:CD(SD) rat at 1 mg/kg, po by LC-MS/MS analysis
# Format: ADME, organism-based
# Details: in vivo
row,Structure (SMILES),Tmax [h]
1,Cc1c(N2C(=O)C[C@H](O)[C@@H]2C)ccc(C#N)c1Cl,3.33

# Test system: not listed separately
# Assay: AUC (0 to 24 hrs) in Crl:CD(SD) rat at 1 mg/kg, po by LC-MS/MS analysis
# Format: ADME, organism-based
# Set-up: dose 1 mg/kg, time < 24 hr, route oral
# Details: in vivo
row,Structure (SMILES),AUC(0-t) at 24 h [µg·h/mL]
1,Cc1c(N2C(=O)C[C@H](O)[C@@H]2C)ccc(C#N)c1Cl,7.34

# Test system: not listed separately
# Assay: MRT in Crl:CD(SD) rat at 1 mg/kg, po by LC-MS/MS analysis
# Format: ADME, organism-based
# Details: in vivo
row,Structure (SMILES),MRT [h]
1,Cc1c(N2C(=O)C[C@H](O)[C@@H]2C)ccc(C#N)c1Cl,4.06

# Biological target: T1, Mineralocorticoid receptor (Homo sapiens, UniProt P08235)
# T1 sequence (P08235 whole entry): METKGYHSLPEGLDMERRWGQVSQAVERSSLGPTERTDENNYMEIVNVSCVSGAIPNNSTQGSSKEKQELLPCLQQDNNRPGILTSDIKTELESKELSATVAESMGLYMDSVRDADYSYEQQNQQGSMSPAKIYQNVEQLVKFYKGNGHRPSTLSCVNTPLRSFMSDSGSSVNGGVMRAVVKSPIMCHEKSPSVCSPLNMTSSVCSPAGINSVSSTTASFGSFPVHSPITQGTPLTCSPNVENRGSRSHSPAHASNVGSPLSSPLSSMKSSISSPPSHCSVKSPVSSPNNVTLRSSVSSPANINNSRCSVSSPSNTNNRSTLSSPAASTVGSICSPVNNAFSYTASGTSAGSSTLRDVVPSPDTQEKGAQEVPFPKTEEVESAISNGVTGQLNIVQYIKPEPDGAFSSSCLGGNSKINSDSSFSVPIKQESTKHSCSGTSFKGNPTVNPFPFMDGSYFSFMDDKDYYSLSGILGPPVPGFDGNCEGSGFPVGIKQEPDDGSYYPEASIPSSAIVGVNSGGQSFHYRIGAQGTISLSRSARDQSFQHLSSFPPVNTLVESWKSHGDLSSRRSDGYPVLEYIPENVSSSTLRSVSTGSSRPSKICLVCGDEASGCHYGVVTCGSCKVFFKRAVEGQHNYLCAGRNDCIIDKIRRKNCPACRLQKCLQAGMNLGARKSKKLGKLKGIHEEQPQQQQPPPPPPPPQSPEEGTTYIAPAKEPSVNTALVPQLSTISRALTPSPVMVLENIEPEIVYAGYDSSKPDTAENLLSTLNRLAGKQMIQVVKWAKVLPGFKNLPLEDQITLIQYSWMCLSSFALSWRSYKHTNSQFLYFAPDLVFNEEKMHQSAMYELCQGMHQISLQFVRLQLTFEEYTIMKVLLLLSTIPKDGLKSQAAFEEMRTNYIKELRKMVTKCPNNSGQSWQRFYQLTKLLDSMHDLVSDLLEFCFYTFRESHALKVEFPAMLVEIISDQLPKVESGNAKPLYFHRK
# Assay: Binding affinity to MR (unknown origin)
# Details: not given
row,Structure (SMILES),IC50 [µM]
1,C[C@]12CCC(=O)C[C@@H]1CC[C@@H]1[C@@H]2CC[C@]2(C)[C@@H](O)CC[C@@H]12 [STANOLONE],0.36

# Biological target: T2, Progesterone receptor (Homo sapiens, UniProt P06401)
# T2 sequence (P06401 whole entry): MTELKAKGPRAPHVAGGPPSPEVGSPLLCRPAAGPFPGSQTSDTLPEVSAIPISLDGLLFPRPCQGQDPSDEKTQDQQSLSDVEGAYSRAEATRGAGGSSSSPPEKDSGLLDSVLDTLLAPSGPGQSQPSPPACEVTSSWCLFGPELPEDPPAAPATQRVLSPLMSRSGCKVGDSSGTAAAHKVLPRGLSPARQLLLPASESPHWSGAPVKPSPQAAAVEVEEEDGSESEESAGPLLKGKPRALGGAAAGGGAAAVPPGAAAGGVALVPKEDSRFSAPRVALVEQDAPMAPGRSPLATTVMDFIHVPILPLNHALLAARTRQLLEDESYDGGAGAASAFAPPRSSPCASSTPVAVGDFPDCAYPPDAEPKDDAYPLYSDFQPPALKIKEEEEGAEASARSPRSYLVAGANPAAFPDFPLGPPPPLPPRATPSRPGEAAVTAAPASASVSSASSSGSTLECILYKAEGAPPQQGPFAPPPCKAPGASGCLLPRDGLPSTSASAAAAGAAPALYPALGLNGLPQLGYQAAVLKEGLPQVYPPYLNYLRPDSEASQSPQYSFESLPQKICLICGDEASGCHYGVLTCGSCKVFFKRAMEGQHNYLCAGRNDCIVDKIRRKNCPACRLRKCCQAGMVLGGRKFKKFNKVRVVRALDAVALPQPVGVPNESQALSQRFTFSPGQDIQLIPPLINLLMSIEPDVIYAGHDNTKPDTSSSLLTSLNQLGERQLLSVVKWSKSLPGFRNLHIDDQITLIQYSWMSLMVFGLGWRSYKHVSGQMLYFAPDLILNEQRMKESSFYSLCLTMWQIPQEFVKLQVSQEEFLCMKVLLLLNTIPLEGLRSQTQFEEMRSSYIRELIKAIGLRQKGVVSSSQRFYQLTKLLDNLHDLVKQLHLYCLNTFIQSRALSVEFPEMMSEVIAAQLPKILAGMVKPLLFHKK
# Assay: Binding affinity to PR (unknown origin)
# Details: not given
row,Structure (SMILES),IC50 [µM]
1,C[C@]12CCC(=O)C[C@@H]1CC[C@@H]1[C@@H]2CC[C@]2(C)[C@@H](O)CC[C@@H]12 [STANOLONE],7.3

# Biological target: T2, Progesterone receptor
# Assay: Agonist activity at PR (unknown origin) by luciferase reporter gene assay
# Details: not given
row,Structure (SMILES),EC50 [µM]
1,C[C@]12CCC(=O)C[C@@H]1CC[C@@H]1[C@@H]2CC[C@]2(C)[C@@H](O)CC[C@@H]12 [STANOLONE],8.2

# Biological target: T3, Androgen receptor (Homo sapiens, UniProt P10275)
# T3 sequence (P10275 whole entry): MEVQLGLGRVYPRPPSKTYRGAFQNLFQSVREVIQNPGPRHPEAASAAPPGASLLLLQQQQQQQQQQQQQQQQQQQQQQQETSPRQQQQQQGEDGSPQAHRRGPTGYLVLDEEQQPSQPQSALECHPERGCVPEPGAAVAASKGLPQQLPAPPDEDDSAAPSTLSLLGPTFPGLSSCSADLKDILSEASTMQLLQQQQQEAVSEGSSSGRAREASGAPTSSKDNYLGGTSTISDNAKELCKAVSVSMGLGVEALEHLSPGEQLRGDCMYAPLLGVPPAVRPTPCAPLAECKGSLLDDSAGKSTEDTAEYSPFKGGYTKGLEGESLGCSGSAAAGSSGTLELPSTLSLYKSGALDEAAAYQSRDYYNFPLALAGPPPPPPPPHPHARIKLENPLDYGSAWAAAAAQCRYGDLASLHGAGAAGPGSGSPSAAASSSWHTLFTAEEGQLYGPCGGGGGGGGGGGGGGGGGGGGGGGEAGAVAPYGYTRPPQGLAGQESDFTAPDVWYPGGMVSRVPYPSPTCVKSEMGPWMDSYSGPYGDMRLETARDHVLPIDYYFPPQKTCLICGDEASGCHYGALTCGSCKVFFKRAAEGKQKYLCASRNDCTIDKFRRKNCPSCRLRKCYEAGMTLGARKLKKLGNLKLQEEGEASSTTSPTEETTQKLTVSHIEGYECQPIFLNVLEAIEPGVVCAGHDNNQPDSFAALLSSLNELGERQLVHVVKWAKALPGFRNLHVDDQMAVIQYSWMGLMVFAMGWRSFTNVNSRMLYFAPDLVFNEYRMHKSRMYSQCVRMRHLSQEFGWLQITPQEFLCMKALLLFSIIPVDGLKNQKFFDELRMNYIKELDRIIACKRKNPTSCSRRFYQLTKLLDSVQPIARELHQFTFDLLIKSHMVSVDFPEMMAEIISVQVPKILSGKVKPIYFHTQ
# Details: not given
row,Structure (SMILES),IC50 [µM]
1,C[C@H]1[C@@H](O)C(F)(F)C(=O)N1c1ccc(C#N)c(Cl)c1,0.0011
2,N#CC[C@H]1[C@@H](O)CC(=O)N1c1ccc(C#N)c(Cl)c1,0.014
3,C[C@@H]1[C@H](O)C(C)(C)C(=O)N1c1ccc(C#N)c(Cl)c1,6.6
4,CC[C@H]1[C@H](O)CC(=O)N1c1ccc(C#N)c(Cl)c1,0.0034
5,CC(C)C[C@H]1[C@@H](O)CC(=O)N1c1ccc(C#N)c(Cl)c1,0.0055
6,Cc1c(N2C(=O)C[C@H](O)[C@@H]2C)ccc(C#N)c1Cl,0.011
7,CC[C@H]1[C@@H](O)CC(=O)N1c1ccc(C#N)c(Cl)c1,0.0039
8,CC[C@H]1[C@@H](O)CC(=O)N1c1ccc(C#N)c(Cl)c1C,0.009

# Biological target: T3, Androgen receptor
# Details: not given
# Remark: another data set of the same source
row,Structure (SMILES),EC50 [µM]
1,C[C@H]1[C@@H](O)C(F)(F)C(=O)N1c1ccc(C#N)c(Cl)c1,0.012
2,N#CC[C@H]1[C@@H](O)CC(=O)N1c1ccc(C#N)c(Cl)c1,> 10
3,C[C@@H]1[C@H](O)C(C)(C)C(=O)N1c1ccc(C#N)c(Cl)c1,10
4,CC[C@H]1[C@H](O)CC(=O)N1c1ccc(C#N)c(Cl)c1,0.008
5,CC(C)C[C@H]1[C@@H](O)CC(=O)N1c1ccc(C#N)c(Cl)c1,0.17
6,Cc1c(N2C(=O)C[C@H](O)[C@@H]2C)ccc(C#N)c1Cl,1
7,CC[C@H]1[C@@H](O)CC(=O)N1c1ccc(C#N)c(Cl)c1,0.006
8,CC[C@H]1[C@@H](O)CC(=O)N1c1ccc(C#N)c(Cl)c1C,0.023
